We go through 11 compounds from US4670457A, “2H-benzofuran-3-one-derivatives and process for their preparation” (Farmitalia Carlo Erba, S.p.A., priority 1978, dated 1987).

A short description of this data set: Seven days indicative acute toxicity after oral administration. Particulars: mouse, in vivo, mice. The method, then:
The tested compounds were administered per os (p.o.) 15 minutes before the administration of the antigen: at least 6 rats were used for each dose. Seven days indicative acute toxicity after oral administration was assessed for the compounds of the invention, for example, a LD50 >800 mg/kg in mice was obtained for all the following compounds of the invention: […]
With `CC(C)Oc1ccccc1C=C1Oc2ccc(C(=O)O)cc2C1=O` [5-carboxy-2-(2'-isopropoxy-benzylidene)-2H-benzofuran-3-one], the LD50 (as a rule, the dose expected to kill half of the subjects tested) at 168 h was above 800 mg/kg.
On to `COc1ccccc1C=C1Oc2ccc(C(=O)O)cc2C1=O` [5-carboxy-2-(2'-methoxy-benzylidene)-2H-benzofuran-3-one], for which the LD50 at 168 h is above 800 mg/kg.
Compound `O=C(O)c1ccc2c(c1)C(=O)C(=Cc1cccs1)O2` [5-carboxy-2-(2'-thenylidene)-2H-benzofuran-3-one] gave an LD50 at 168 h above 800 mg/kg.
Regarding `COc1ccc(C=C2Oc3ccc(C(=O)O)cc3C2=O)cc1OC` [5-carboxy-2-(3',4'-dimethoxy-benzylidene)-2H-benzofuran-3-one], the LD50 at 168 h was above 800 mg/kg.
`CC(C)Oc1cccc(C=C2Oc3ccc(C(=O)O)cc3C2=O)c1` [5-carboxy-2-(3'-isopropoxy-benzylidene)-2H-benzofuran-3-one] had an LD50 at 168 h above 800 mg/kg.
With `COc1cccc(C=C2Oc3ccc(C(=O)O)cc3C2=O)c1` [5-carboxy-2-(3'-methoxy-benzylidene)-2H-benzofuran-3-one], the LD50 at 168 h was above 800 mg/kg.
For the compound `COc1ccc(C=C2Oc3ccc(C(=O)O)cc3C2=O)cc1` [5-carboxy-2-(4'-methoxy-benzylidene)-2H-benzofuran-3-one], the LD50 at 168 h was above 800 mg/kg.
In turn, `COc1cc(C=C2Oc3ccc(C(=O)O)cc3C2=O)cc(OC)c1OC` [K 13364, 5-carboxy-2-(3',4',5'-trimethoxy-benzylidene)-2H-benzofuran-3-one] had an LD50 at 168 h above 800 mg/kg.
For the compound `COc1ccc(OC)c(C=C2Oc3ccc(C(=O)O)cc3C2=O)c1` [K 13383, 5-carboxy-2-(2',5'-dimethoxy-benzylidene)-2H-benzofuran-3-one], the LD50 at 168 h is above 800 mg/kg.
For `COc1ccc(C=C2Oc3ccc(C(=O)O)cc3C2=O)c(OC)c1OC` [K 13422, 5-carboxy-2-(2',3',4'-trimethoxy-benzylidene)-2H-benzofuran-3-one], the LD50 at 168 h was above 800 mg/kg.
The compound `COc1ccc(OC(C)C)c(C=C2Oc3ccc(C(=O)O)cc3C2=O)c1` [K 13432, 5-carboxy-2-(2'-isopropoxy-5'-methoxy-benzylidene)-2H-benzofuran-3-one] showed an LD50 at 168 h above 800 mg/kg.
